By IC50 is commonly meant the concentration that gives 50% inhibition.

We go through 35 molecules from patent US20070265289A1, “2-Aminopyrimidine Derivative” (priority 2004, published 2007).

Molecules are shown by their SMILES. Counter-ions that a name gives are not always drawn.

One test deals with T1, rat IKK2 (Rattus norvegicus, UniProt Q9QY78).
T1 construct: ORF of rat IKK2 (GenBank AF115282) was cloned from a rat pancreas cDNA library; FLAG; made in house; host or cells: Sf9 insect cells
T1 sequence (Q9QY78 1-757): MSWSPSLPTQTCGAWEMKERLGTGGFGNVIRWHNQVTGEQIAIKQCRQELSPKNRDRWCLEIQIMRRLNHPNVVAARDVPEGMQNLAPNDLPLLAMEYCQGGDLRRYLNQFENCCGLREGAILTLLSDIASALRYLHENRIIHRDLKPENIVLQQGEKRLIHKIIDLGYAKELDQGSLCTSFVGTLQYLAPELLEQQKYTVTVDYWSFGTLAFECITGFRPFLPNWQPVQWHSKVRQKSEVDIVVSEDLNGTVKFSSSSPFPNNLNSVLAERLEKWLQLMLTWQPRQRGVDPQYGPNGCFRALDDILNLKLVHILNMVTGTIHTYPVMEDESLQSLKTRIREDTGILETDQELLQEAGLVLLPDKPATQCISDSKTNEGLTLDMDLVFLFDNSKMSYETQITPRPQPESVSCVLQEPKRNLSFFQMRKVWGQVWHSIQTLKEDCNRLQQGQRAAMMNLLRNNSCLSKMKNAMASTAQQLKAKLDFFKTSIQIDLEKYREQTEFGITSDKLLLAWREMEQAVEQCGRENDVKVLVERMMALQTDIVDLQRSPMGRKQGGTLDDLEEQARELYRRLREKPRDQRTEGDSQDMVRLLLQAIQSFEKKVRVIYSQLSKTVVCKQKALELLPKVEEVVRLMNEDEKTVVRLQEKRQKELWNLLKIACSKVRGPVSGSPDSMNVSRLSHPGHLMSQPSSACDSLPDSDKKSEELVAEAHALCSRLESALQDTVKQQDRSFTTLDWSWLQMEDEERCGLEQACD
The test can be described thus: Evaluation of rat IKK2 enzyme inhibition. The class given is biochemical. The conditions noted are these: 0.5 μM ATP, probit analysis; read-out: IC50, rat IKK2 enzyme activity-inhibitory effect. On the procedure: (1) Evaluation of Rat IKK2 Enzyme Inhibition:
ORF of rat IKK2 (GenBank AF115282) was cloned from a rat pancreas cDNA library, and with a FLAG-tag attached thereto, it was expressed in an Sf9 cell line. The cells were dissolved in a cytolytic solution (50 mM Tris-HCl pH 7.5, 0.15M NaCl, 1% NP-40, 10% glycerol, 1 mM EDTA, 1 mM EGTA pH 7.5, 1 mM Na3VO4, 5 mM p-nitrophenylphosphate, 10 mM O-glycerophosphate, 1 mM DTT, 1 mM PMSF, 10 μg/ml leupeptin, 10 μg/ml aprotinin (by Sigma)) to prepare a large amount of an cell extract, which was then purified on an anti-FLAG M2 antibody (by Sigma). This experimental operation was carried out in accordance with gene manipulation experiment manuals such as known methods (Sambrook, J. et al, Molecular Cloning-A Laboratory Manual, Cold Spring Harbor laboratory, NY, 1989) or the instructions attached to the reagents. The purified rat IKK2 was stored in an enzyme preservative (20 mM Tris-HCl pH 7.5, 10% glycerol, 12.5 mM β-glycerophosphate, 0.5 mM EDTA, 0.5 mM EGTA, 0.05% Brij35, 1 mM DTT, 1 mM PMSF (by Sigma)) at −80° C.
The purified rat IKK2, 1× enzymatic reaction buffer (20 mM Tris-HCl pH 7.5, 12.5 mM O-glycerophosphate, 20 mM MgCl2, 0.1 mM DTT), 0.01% BSA (by Sigma), 0.5 μM ATP, 0.2 μM biotinated substrate peptide (18th to 49th amino acid residues of rat I-kappa B alpha (GenBank Q63746)) and a test compound dissolved in DMSO were added to a 384-well plate (catalogue No. 3677, by Corning) to be 10 μl in total therein, and left at room temperature for 90 minutes. Next, […] of a reaction stopper (100 mM Hepse pH 8, 0.01% BSA, 0.8 M KF, 50 mM EDTA pH 8, 1% Triton X-100, europium cryptate-labeled anti-phosphorylation I-kappa B alpha-antibody (by Santa Cru), streptoavidin-labeled XL665 (by Nihon Schering)) was added thereto, kept warmed for 30 minutes, and then assayed with DISCOVERY (by Perkin-Elmer). The rat IKK2 enzyme activity-inhibitory effect of the tested compound was obtained according to the following formula. Every dose was tested independently three times. Inhibition (%) by Test Compound=((mean value with rat IKK2 but not with test compound)−(mean value with both test compound and rat IKK2))/((mean value with rat IKK2 but not with test compound)−(mean value not with rat IKK2))×100.
Regarding `CCc1ccc(O)c(-c2cc(C3CCCNC3)nc(N)n2)c1` (single isomer, unassigned; (-)) [Example 78, (−)-2-(2-amino-6-piperidin-3-ylpyrimidin-4-yl)-4-ethylphenol dihydrochloride], the IC50 is at most 500 nM.

Regarding `Nc1nc(-c2ccccc2O)cc(C2CCCNC2)n1` (stereo not drawn) [Example 1, 2-(2-amino-6-piperidin-3-ylpyrimidin-4-yl)phenol dihydrochloride], the IC50 was at most 500 nM.

On to `CCOc1cccc(O)c1-c1cc(C2CCCNC2)nc(N)n1` (stereo not drawn) [Example 5, 2-(2-amino-6-piperidin-3-ylpyrimidin-4-yl)-3-ethoxyphenol dihydrochloride], for which the half-inhibitory concentration (IC50) was at most 500 nM.

For `Nc1nc(-c2c(O)cccc2O)cc(C2CCCNC2)n1` (stereo not drawn) [Example 10, 2-(2-amino-6-piperidin-3-ylpyrimidin-4-yl)benzene-1,3-diol dihydrochloride], the concentration for half-maximal inhibition (IC50) was at most 500 nM.

Take `Nc1nc(-c2cc(F)ccc2O)cc(C2CCCNC2)n1` (stereo not drawn) [Example 12]: the concentration for half-maximal inhibition (IC50) was at most 500 nM.

Regarding `Nc1nc(-c2ccc(F)cc2O)cc(C2CCCNC2)n1` (stereo not drawn) [Example 13], the IC50 is at most 500 nM.

For `Nc1nc(-c2cc(Cl)ccc2O)cc(C2CCCNC2)n1` (stereo not drawn) [Example 14], the IC50 was at most 500 nM.

Consider `Cc1cc(O)c(-c2cc(C3CCCNC3)nc(N)n2)cc1Cl` (stereo not drawn) [Example 19], for which the IC50 is at most 500 nM.

Consider `Cc1ccc(O)c(-c2cc(C3CCCNC3)nc(N)n2)c1` (stereo not drawn) [Example 22], for which the IC50 is at most 500 nM.

For `COc1ccc(O)c(-c2cc(C3CCCNC3)nc(N)n2)c1` (stereo not drawn) [Example 26], the half-inhibitory concentration (IC50) was at most 500 nM.

`CSc1ccc(O)c(-c2cc(C3CCCNC3)nc(N)n2)c1` (stereo not drawn) [Example 28]: the IC50 was at most 500 nM.

On to `Cc1cc(O)c(-c2cc(C3CCCNC3)nc(N)n2)c(OCC2CC2)c1` (stereo not drawn) [Example 40], for which the IC50 is at most 500 nM.

On to `COc1cccc(O)c1-c1cc(C2CCCNC2)nc(N)n1` (stereo not drawn) [Example 44], for which the IC50 is at most 500 nM.

Regarding `COCCOc1cccc(O)c1-c1cc(C2CCCNC2)nc(N)n1` (stereo not drawn) [Example 46], the 50% inhibitory concentration (IC50) was at most 500 nM.

On to `Nc1nc(-c2c(O)cccc2OCc2ccccc2)cc(C2CCCNC2)n1` (stereo not drawn) [Example 47], for which the IC50 is at most 500 nM.

Regarding `Nc1nc(-c2c(O)cccc2OCCC2CCNCC2)cc(C2CCCNC2)n1` (stereo not drawn) [Example 48], the IC50 is at most 500 nM.

`CC1CC1COc1cccc(O)c1-c1cc(C2CCCNC2)nc(N)n1` (stereo not drawn) [Example 65, 2-(2-amino-6-piperidin-3-ylpyrimidin-4-yl)-3-[(2-methylcyclopropyl)methoxy]phenol dihydrochloride]: the 50% inhibitory concentration (IC50) was at most 500 nM.

As for `Nc1nc(-c2c(O)cccc2OCC(F)(F)C(F)F)cc(C2CCCNC2)n1` (stereo not drawn) [Example 89], the IC50 is at most 500 nM.

Regarding `CC1(COc2cccc(O)c2-c2cc(C3CCCNC3)nc(N)n2)CC1` (stereo not drawn) [Example 99], the IC50 was at most 500 nM.

For `CC(C)OCCOc1cccc(O)c1-c1cc(C2CCCNC2)nc(N)n1` (stereo not drawn) [Example 100], the half-inhibitory concentration (IC50) is at most 500 nM.

`CC(C)COCCOc1cccc(O)c1-c1cc(C2CCCNC2)nc(N)n1` (stereo not drawn) [Example 101]: the IC50 is at most 500 nM.

With `CC(COc1cccc(O)c1-c1cc(C2CCCNC2)nc(N)n1)Oc1ccccc1` (stereo not drawn) [Example 103], the IC50 is at most 500 nM.

As for `Nc1nc(-c2c(O)cccc2OCCC2CC2)cc(C2CCCNC2)n1` (stereo not drawn) [Example 104], the 50% inhibitory concentration (IC50) is at most 500 nM.

Regarding `Nc1nc(-c2c(O)cccc2OCCCC(F)(F)F)cc(C2CCCNC2)n1` (stereo not drawn) [Example 106], the IC50 was at most 500 nM.

Consider `Nc1nc(-c2c(O)cccc2OCc2ccc(Br)cc2)cc(C2CCCNC2)n1` (stereo not drawn) [Example 108], for which the IC50 was at most 500 nM.

In the case of `CC1CCC(Oc2cccc(O)c2-c2cc(C3CCCNC3)nc(N)n2)C1` (stereo not drawn) [Example 126], the IC50 is at most 500 nM.

Take `Cc1ccc(O)c(-c2cc(C3CNCC(C)C3)nc(N)n2)c1` (stereo not drawn) [Example 136]: the concentration for half-maximal inhibition (IC50) is at most 500 nM.

In the case of `Cc1ccc(O)c(-c2cc(C3CCC(C)NC3)nc(N)n2)c1` (stereo not drawn) [Example 137], the IC50 is at most 500 nM.

For `CC1CCC(c2cc(-c3c(O)cccc3OCC3CC3)nc(N)n2)CN1` (stereo not drawn) [Example 140], the IC50 was 2.9 nM.

In the case of `Nc1nc(-c2c(O)cccc2OCC2CC2)cc(C2CCNCC2)n1` [Example 145], the IC50 was at most 500 nM.

In the case of `CC(C)COc1cccc(O)c1-c1cc(C2CCNCC2)nc(N)n1` [Example 146], the IC50 was at most 500 nM.

For `Nc1nc(-c2c(O)cccc2OCC(=O)c2ccccc2)cc(C2CCNCC2)n1` [Example 147], the IC50 is at most 500 nM.

The test system of another test is TNF-α production. Briefly: Mouse LPS-induced TNF-α production model. The class given is in vivo, Balb/c female mice. To be noted: Mus musculus, po, 1.5 h, oral administration of 30 mg/kg, 60 minutes before LPS, blood 90 minutes after LPS; read-out: inhibition of plasma TNF-α. On the procedure: (2) Mouse LPS-Induced TNF-α Production Model:
6 weeks old Balb/c female mice were placed into two groups, a control group and a test compound administration group. A solution containing 10 μg/mouse of LPS in 0.9% physiological salt was administered by intraperitoneal injection into the control mice. 60 minutes before the LPS administration, a compound of the invention was orally administered to the mice of the test compound administration group. Under anesthesia with diethyl ether, blood was collected from the posterior venous cavity of the mice of both the test compound administration group and the control group at 90 minutes after the LPS administration, and treated with heparin, and the plasma was separated from it through centrifugation at 10000 rpm at 4° C. for 10 minutes, and then diluted two-fold with PBS (pH 7.4).
The TNF-α concentration in the sample was determined with an ELISA kit (by Pharmingen, San Diego, Calif.). The inhibition by the mice of the test compound administration group relative to the mean inhibition by those of the control group was calculated as a mean value thereof.
The inhibition in oral administration of 30 mg/kg of compound (I) is shown below.
For the molecule `CCc1ccc(O)c(-c2cc(C3CCCNC3)nc(N)n2)c1` (single isomer, unassigned; (+)) [Example 79, (+)-2-(2-amino-6-piperidin-3-ylpyrimidin-4-yl)-4-ethylphenol dihydrochloride], the inhibition in vivo at 30 mg/kg amounted to 64%.

Consider `Cc1ccc(O)c(-c2cc(C3CCCNC3)nc(N)n2)c1` (stereo not drawn) [Example 22], for which the inhibition in vivo at 30 mg/kg amounted to 73%.

Consider `CC1CC1COc1cccc(O)c1-c1cc(C2CCCNC2)nc(N)n1` (stereo not drawn) [Example 65, 2-(2-amino-6-piperidin-3-ylpyrimidin-4-yl)-3-[(2-methylcyclopropyl)methoxy]phenol dihydrochloride], for which the inhibition in vivo at 30 mg/kg was 75%.

Turning to `Nc1nc(-c2c(O)cccc2OCC(F)(F)C(F)F)cc(C2CCCNC2)n1` (stereo not drawn) [Example 89], the inhibition in vivo at 30 mg/kg worked out at 87%.

For the molecule `CC(COc1cccc(O)c1-c1cc(C2CCCNC2)nc(N)n1)Oc1ccccc1` (stereo not drawn) [Example 103], the inhibition in vivo at 30 mg/kg stood at 70%.

Consider `Nc1nc(-c2c(O)cccc2OCCC2CC2)cc(C2CCCNC2)n1` (stereo not drawn) [Example 104], for which the inhibition in vivo at 30 mg/kg amounted to 86%.

`Nc1nc(-c2c(O)cccc2OCCCC(F)(F)F)cc(C2CCCNC2)n1` (stereo not drawn) [Example 106]: the inhibition in vivo at 30 mg/kg is 82%.

In the case of `CC1CCC(c2cc(-c3c(O)cccc3OCC3CC3)nc(N)n2)CN1` (stereo not drawn) [Example 140], the inhibition in vivo at 30 mg/kg came to 86%.

Take `Nc1nc(-c2c(O)cccc2OCC2CC2)cc(C2CCCNC2)n1` (stereo not drawn) [Example 141]: the inhibition in vivo at 30 mg/kg came to 86%.

The same test, now with this note: oral administration of 30 mg/kg, 60 minutes before LPS, blood 90 minutes after LPS; 30 mg/kg.
`Nc1nc(-c2c(O)cccc2OCC2CC2)cc(C2CCCNC2)n1` (stereo not drawn) [Example 142]: the “inhibition of plasma TNF-α” value is 90%.
